# Data from patent US7718677B2, “Methods and compositions for reduction of side effects of therapeutic treatments” (priority 2007, dated 2010).
# Marks after values point to notes of the source that are not given here.
# Test system: Squirrel (Saimiri sciureus) monkeys with nigrostriatal damage
# Assay: Levodopa-induced dyskinesias in MPTP-lesioned monkeys, nicotine in drinking solution before levodopa (Example 1)
# Format: in vivo
# Details: for dyskinetic ratings 3 hours after the afternoon levodopa treatment: scale 0-4, mean ± SE
# Experimental: Animals: Squirrel (Saimiri sciureus) monkeys (n=7) were purchased from World Wide Primates (Miami, Fla.). The animals weighed between 0.6-0.9 kg and were in mid to late adulthood as determined from their general appearance (dentition, fur, other). Female monkeys were used since older animals were available that may better model Parkinson's disease. The animals were placed in quarantine upon arrival, and maintained in a temperature-controlled room (27±3° C.) with a relative humidity>30%, under a 13/11-hour light/dark cycle. Monkey food chow and fruits/vegetables were provided once daily, with water provided ad libitum. The monkeys were housed in separate cages to allow for clear behavioral assessments. The animals were released from quarantine after 1 month and treatments initiated. All procedures conformed to the National Institutes of Health Guide for the Care and Use of Laboratory Animals and were approved by the Institutional Animal Care and Use Committee at the Parkinson's Institute.
# 1-Methyl-4-phenyl-1,2,3,6-tetrahydropyridine (MPTP) administration: Prior to lesioning, the animals were allowed to acclimate to the colony and rated for parkinsonism as described (Langston et al. Ann Neurol. 2000; 47:S79-89). All values were within the normal range. The monkeys were then injected subcutaneously with 2.0 mg/kg MPTP (Sigma, St-Louis, Mo.) dissolved in saline. The animals were rated for parkinsonism 3-4 weeks after MPTP administration. The disability scores ranged from 0 (normal) to 28 for a severely parkinsonian animal. Animals were assessed for 1) spatial hypokinesia (reduction in use of the available cage space), 2) body bradykinesia (increased slowness in body movement), 3) left and 4) right manual dexterity, 5) balance, 6) freezing and 7) action tremor. If they were not parkinsonian, MPTP injection (1.0-2.0 mg/kg) was repeated from 2-5 times for total doses of 3.5 to 13.5 mg/kg. Despite multiple MPTP dosing, two of the animals were not stably parkinsonian.
# Nicotine treatment: All monkeys (n=7) were then given a drinking solution for 3 weeks consisting of commercially available orange Gatorade® to mask nicotine's bitter taste (FIG. 1). The control group (n=4) was continued on Gatorade® only, while nicotine (free base) was added to the Gatorade of the treated group (n=3). Nicotine dosing was started at 50 μg/ml for 1 week, 150 μg/ml for 1 week, with the concentration increased by […] over the next few weeks, up to 650 μg/ml (FIG. 1).
# Levodopa administration: Monkeys were administered levodopa/carbidopa (5 mg/kg and 1.25 mg/kg, respectively), prepared by crushing a tablet of Sinemet® CR 100/25 (DuPont Pharma) and dissolving it in water. This dose of levodopa is within the range of that prescribed to Parkinson's disease patients. The monkeys were gavaged twice daily at 3.5-hour intervals for 8 weeks at a time using a 5-day-on/2-day-off schedule (Hsu et al., J Pharmacol Exp Ther. 2004; 311:770-777). During levodopa treatment, the monkeys were given fruits in the morning and food pellets 3.5 hours after the afternoon levodopa dose to optimize gastrointestinal absorption.
# Dyskinesias were rated from videotapes, as described (Hsu et al., J Pharmacol Exp Ther. 2004; 311:770-777). This included a one hour baseline period (no drugs) from ˜8:00-9:00 AM, followed by two 3.5-hour treatment periods with levodopa starting at ˜9:00 AM and ˜12:30 PM. Dyskinesias were rated for 2-minute periods at 30-minute intervals by two independent raters blinded to treatment. They were rated on a scale of 0 (no dyskinesias) to 4; a score of 1 was indicative of subtle dyskinesias that were not sustained; 2, mild dyskinesias that were sustained; 3, moderate dyskinesias that impaired the ability to remain stationary; 4, severe dyskinesias that were generalized and incapacitating.
# Data analyses: The levodopa treatment protocol used in the present study involved a 5-day-on/2-day-off schedule.
structure (smiles),measurement,setting,value
"CN1CCCC1c1cccnc1 (centres unmarked) [Nicotine, S-3-(1-methyl-2-pyrrolidinyl)pyridine]",total dyskinesias (area under the curve of the time course),all time points vs monkeys not receiving nicotine,significant decrease
same,decline in levodopa-induced dyskinesias,"animals pretreated with nicotine, levodopa naïve monkeys",~60%
same,levodopa-induced dyskinesias over the course of the day (time course),"nicotine up to 650 μg/ml in drinking solution, vs monkeys not receiving nicotine, entire 8-week period",significantly reduced
same,peak dyskinesias (maximal dyskinetic score during the morning or afternoon),throughout the 8-week levodopa treatment vs control,decreased
same,dyskinetic ratings 3 hours after the afternoon levodopa treatment,"week 2/3 of levodopa treatment, levodopa/carbidopa 5/1.25 mg/kg twice daily",0.3 ± 0.3
same,dyskinetic ratings 3 hours after the afternoon levodopa treatment,week 4 of levodopa treatment,0*
same,dyskinetic ratings 3 hours after the afternoon levodopa treatment,week 6 of levodopa treatment,0*
same,dyskinetic ratings 3 hours after the afternoon levodopa treatment,week 8 of levodopa treatment,0.2 ± 0.2
